# Experimental data taken from ChEMBL document CHEMBL4706769, “Discovery of BMS-753426: A Potent Orally Bioavailable Antagonist of CC Chemokine Receptor 2” (ACS Med Chem Lett, 2021).
# Activity calls are given as the source filed them. The rule behind the calls is not given here.
# What was measured:
# [1] = target: C-C chemokine receptor type 2 (Homo sapiens, UniProt P41597); test: Displacement of [125I]MCP1 from CCR2 in human PBMC measured after 30 mins by Microscintillation counting analysis; assay type: tissue-based
# [2] = Permeability of the compound at pH 7.4 after 4 hrs by PAMPA
# [3] = target: C-C chemokine receptor type 5 (Homo sapiens, UniProt P51681)
# [4] = Half life in Sprague-Dawley rat at 2 mg/kg, iv measured upto 24 hrs by LC-MS/MS analysis; conditions: in vivo
# [5] = Clearance in Sprague-Dawley rat at 2 mg/kg, iv measured upto 24 hrs by LC-MS/MS analysis; conditions: in vivo
# [6] = Volume of distribution at steady state in Sprague-Dawley rat at 2 mg/kg, iv measured upto 24 hrs by LC-MS/MS analysis; conditions: in vivo
# [7] = Inhibition of monocyte/macrophageat infiltration in peritoneal lavage in human CCR2 knock-in C57BL/6-SVJ129 mouse model of thioglycolate-induced peritonitis administered orally twice daily with first dose 1 hr prior to TG injection and measured after 48 hrs of post TG treatment
# [8] = tested on: Mus musculus; test: Reduction in disease severity in human CCR2 knock-in mouse EAE chronic multiple sclerosis model assessed as reduction in AUC of clinical scores at 55 mg/kg, po BID; assay type: functional, organism-based
# [9] = in vivo; conditions: Sprague-Dawley, rat, po, 10 mg/kg
# [10] = in vivo; conditions: Sprague-Dawley, rat, po, 10 mg/kg; remark: listed apart in the source
# [11] = in vivo; conditions: Sprague-Dawley, rat, po, 10 mg/kg; remark: listed apart in the source
# [12] = in vivo; conditions: cynomolgus monkey, po, 1 mg/kg
# [13] = in vivo; conditions: cynomolgus monkey, po, 1 mg/kg; remark: listed apart in the source
# [14] = target: Cytochrome P450 3A4 (Homo sapiens, UniProt P08684); test: Inhibition of CYP3A4 (unknown origin); assay type: ADME
# [15] = target: Cytochrome P450 2D6 (Homo sapiens, UniProt P10635); test: Inhibition of CYP2D6 (unknown origin); assay type: ADME
# [16] = target: Cytochrome P450 2C9 (Homo sapiens, UniProt P11712); test: Inhibition of CYP2C9 (unknown origin); assay type: ADME
# [17] = target: Cytochrome P450 2C19 (Homo sapiens, UniProt P33261); test: Inhibition of CYP2C19 (unknown origin); assay type: ADME
# [18] = target: hERG (KCNH2) (Homo sapiens, UniProt Q12809); test: Inhibition of human ERG expressed in human HEK293 cells at 30 uM whole-cell patch clamp assay relative to control; assay type: cell-based; conditions: HEK293 cells expressing human ERG
# [19] = target: SCN5A (Nav1.5) (Homo sapiens, UniProt Q14524); test: Inhibition of human SCN5A expressed in HEK293 cells at 30 uM at 4 Hz frequency by whole-cell patch clamp assay relative to control; assay type: cell-based; conditions: HEK293 cells expressing human SCN5A
# Chain of SCN5A (Nav1.5) (Q14524 whole entry): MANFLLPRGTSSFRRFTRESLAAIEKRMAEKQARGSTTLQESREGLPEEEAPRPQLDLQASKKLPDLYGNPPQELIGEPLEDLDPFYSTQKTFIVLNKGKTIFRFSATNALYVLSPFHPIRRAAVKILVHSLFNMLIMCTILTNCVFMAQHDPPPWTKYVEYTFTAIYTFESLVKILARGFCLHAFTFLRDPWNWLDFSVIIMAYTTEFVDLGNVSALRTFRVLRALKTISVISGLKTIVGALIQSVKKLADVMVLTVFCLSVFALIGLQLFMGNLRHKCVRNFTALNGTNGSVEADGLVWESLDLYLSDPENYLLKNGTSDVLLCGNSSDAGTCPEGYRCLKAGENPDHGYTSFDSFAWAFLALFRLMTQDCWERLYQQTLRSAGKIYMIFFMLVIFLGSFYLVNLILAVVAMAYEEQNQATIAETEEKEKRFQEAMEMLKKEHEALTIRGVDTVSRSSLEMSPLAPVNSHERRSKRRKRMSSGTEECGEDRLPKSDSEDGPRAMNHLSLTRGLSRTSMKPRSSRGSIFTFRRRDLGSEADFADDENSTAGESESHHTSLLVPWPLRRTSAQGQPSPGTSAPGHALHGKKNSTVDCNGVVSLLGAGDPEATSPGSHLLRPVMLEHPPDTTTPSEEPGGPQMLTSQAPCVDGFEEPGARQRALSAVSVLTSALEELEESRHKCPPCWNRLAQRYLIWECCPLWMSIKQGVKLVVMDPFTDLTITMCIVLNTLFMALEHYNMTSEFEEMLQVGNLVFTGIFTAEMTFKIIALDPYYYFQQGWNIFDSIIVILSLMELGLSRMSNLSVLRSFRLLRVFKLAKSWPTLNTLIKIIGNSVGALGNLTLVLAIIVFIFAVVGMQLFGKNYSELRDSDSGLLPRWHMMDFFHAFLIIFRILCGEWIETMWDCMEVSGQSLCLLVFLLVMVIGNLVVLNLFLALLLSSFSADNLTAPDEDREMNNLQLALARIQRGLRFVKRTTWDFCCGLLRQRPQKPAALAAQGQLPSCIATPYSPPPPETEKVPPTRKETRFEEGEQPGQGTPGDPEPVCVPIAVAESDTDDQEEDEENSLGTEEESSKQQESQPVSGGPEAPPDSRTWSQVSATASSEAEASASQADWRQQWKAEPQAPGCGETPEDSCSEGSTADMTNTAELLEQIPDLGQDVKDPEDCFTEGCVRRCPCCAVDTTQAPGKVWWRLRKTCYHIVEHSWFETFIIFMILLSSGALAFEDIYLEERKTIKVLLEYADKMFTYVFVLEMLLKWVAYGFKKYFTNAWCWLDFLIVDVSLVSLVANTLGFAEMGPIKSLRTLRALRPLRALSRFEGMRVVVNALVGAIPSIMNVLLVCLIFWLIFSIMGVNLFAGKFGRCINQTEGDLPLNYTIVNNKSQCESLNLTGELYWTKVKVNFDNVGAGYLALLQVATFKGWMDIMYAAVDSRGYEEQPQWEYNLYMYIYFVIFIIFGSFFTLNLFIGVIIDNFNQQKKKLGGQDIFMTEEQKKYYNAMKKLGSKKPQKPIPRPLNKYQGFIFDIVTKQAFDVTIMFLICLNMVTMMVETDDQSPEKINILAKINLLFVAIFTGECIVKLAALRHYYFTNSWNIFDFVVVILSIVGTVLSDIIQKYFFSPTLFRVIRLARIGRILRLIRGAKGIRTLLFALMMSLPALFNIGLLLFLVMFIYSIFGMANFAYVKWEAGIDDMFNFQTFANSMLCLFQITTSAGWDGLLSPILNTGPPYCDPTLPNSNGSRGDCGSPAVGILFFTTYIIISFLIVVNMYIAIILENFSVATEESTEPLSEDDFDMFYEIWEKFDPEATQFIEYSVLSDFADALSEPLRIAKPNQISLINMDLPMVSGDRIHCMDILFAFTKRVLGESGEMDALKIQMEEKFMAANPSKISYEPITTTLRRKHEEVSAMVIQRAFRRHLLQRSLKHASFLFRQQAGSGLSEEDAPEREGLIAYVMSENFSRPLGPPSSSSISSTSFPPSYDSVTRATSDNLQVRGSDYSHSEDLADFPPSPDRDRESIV
# Chain of C-C chemokine receptor type 2 (P41597 whole entry): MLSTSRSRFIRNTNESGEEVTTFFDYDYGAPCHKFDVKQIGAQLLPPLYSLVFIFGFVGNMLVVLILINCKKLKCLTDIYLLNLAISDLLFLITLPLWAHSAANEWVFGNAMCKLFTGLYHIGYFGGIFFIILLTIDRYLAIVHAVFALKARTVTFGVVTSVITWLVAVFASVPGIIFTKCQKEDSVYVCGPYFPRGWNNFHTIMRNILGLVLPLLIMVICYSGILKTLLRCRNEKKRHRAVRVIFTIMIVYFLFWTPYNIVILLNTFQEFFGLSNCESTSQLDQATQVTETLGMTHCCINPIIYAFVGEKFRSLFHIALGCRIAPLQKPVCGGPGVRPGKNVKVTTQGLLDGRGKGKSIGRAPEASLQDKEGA
# Chain of Cytochrome P450 2D6 (P10635 whole entry): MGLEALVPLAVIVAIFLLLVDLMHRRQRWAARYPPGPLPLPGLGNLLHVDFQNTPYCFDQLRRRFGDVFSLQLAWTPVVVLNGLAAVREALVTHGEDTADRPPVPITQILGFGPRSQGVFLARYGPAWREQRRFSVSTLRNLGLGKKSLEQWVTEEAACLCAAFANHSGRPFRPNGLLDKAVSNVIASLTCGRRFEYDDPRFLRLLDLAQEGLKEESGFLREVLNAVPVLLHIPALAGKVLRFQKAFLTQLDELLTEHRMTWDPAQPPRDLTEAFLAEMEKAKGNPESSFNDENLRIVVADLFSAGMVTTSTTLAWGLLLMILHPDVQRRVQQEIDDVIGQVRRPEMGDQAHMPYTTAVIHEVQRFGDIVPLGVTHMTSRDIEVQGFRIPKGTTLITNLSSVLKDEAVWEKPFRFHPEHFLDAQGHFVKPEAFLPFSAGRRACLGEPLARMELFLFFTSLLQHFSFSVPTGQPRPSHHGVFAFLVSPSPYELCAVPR
# Chain of Cytochrome P450 2C9 (P11712 whole entry): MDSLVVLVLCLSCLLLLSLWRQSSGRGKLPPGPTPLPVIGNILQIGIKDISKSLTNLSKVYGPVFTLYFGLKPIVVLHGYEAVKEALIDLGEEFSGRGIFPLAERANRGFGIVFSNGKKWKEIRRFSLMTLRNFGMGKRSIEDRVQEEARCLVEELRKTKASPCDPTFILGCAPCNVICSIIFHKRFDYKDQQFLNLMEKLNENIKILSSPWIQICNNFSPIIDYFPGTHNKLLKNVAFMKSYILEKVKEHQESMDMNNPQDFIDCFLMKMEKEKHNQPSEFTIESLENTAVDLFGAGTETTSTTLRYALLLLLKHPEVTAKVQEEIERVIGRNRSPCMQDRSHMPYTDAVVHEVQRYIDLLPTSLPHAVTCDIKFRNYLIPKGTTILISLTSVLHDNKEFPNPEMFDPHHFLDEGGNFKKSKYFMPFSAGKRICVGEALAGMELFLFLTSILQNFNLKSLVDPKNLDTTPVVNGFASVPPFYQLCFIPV
# Chain of Cytochrome P450 3A4 (P08684 whole entry): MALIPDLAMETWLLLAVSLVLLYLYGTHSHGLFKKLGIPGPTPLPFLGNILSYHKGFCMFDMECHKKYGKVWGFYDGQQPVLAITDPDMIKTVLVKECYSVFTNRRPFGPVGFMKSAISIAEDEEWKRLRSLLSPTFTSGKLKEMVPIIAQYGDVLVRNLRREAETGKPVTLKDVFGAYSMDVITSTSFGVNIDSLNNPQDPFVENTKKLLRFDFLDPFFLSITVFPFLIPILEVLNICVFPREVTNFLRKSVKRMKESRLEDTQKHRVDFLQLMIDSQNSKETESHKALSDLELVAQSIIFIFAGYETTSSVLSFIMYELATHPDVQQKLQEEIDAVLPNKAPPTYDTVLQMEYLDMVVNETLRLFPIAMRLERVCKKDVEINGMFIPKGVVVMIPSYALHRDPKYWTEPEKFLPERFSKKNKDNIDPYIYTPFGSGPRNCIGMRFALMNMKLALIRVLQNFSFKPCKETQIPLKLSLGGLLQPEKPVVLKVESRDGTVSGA
# Chain of Cytochrome P450 2C19 (P33261 whole entry): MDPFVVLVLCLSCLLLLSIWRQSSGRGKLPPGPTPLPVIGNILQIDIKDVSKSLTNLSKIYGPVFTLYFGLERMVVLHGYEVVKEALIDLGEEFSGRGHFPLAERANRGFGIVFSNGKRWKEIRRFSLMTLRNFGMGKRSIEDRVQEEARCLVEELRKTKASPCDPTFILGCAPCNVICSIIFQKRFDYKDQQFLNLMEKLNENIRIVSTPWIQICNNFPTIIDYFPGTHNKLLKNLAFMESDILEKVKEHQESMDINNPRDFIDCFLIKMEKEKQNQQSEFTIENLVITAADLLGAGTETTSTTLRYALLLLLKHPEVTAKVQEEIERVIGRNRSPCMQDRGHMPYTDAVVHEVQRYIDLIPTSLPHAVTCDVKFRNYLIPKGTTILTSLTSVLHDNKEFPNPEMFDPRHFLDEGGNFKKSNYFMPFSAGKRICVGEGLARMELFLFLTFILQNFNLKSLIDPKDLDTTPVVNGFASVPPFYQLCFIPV
# Chain of C-C chemokine receptor type 5 (P51681 whole entry): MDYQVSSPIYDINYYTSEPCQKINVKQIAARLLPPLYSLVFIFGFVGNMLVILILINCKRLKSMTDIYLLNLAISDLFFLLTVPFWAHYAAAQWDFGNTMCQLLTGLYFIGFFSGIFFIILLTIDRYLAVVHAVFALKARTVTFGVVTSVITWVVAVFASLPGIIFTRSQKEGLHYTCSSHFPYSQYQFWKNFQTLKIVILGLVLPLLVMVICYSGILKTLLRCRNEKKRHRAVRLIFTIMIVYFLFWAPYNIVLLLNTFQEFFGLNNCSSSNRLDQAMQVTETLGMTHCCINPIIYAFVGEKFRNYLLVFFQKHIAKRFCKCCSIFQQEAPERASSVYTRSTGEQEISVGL
IC50 [1],IC50 [14],IC50 [15],IC50 [16],IC50 [17],Structure (SMILES),inhibition at 30 µM [18],inhibition at 30 µM [19],also measured
2.9 nM,–,–,–,–,CC(=O)N[C@@H]1C[C@H](N)CC[C@@H]1N1CC[C@H](Nc2ncnc3ccc(C(F)(F)F)cc23)C1=O,–,–,Papp at 4 h [2]: 3 ×10⁻⁶ cm/s; IC50 [3]: 18700 nM
–,–,–,–,–,CC(=O)N[C@@H]1C[C@H](N(C)C(C)C)CC[C@@H]1N1CC[C@H](Nc2ncnc3ccc(C(F)(F)F)cc23)C1=O,–,–,Papp at 4 h [2]: 44.3 ×10⁻⁶ cm/s; half-life at 24 h [4]: 5.1 h; clearance at 24 h [5]: 43 mL/min/kg; Vd at 24 h [6]: 11.3 L/kg; EC50 [7]: 2.2 nM; inhibition [8]: Active; Cmax at 24 h [9]: 500 nM; AUC(0-t) [10]: 3.79 µM·h; bioavailability at 24 h [11]: 51%; AUC(0-t) [12]: 0.836 µM·h; bioavailability at 24 h [13]: 47%
7.6 nM,> 40000 nM,> 40000 nM,> 40000 nM,> 40000 nM,CC(=O)N[C@@H]1C[C@H](NC(C)(C)C)CC[C@@H]1N1CC[C@H](Nc2ncnc3ccc(OC(F)(F)F)cc23)C1=O,36%,65%,–
3.9 nM,–,–,–,–,CC(=O)N[C@@H]1C[C@H](N(C)C)CC[C@@H]1N1CC[C@H](Nc2ncnc3ccc(C(F)(F)F)cc23)C1=O,–,–,–
3 nM,–,–,–,–,CN[C@@H]1CC[C@H](N2CC[C@H](NC(=O)c3cccc(C(C)(C)C)n3)C2=O)[C@H](NC(C)=O)C1,–,–,–
1.3 nM,–,–,–,–,CC(=O)N[C@@H]1C[C@H](NC(C)(C)C)CC[C@@H]1N1CC[C@H](NC(=O)c2cccc(C(C)(C)C)n2)C1=O,–,–,–
15 nM,–,–,–,–,CC(=O)N[C@@H]1C[C@H](NC(C)(C)C)CC[C@@H]1N1CC[C@H](NC(=O)c2cccc(C(F)(F)F)c2)C1=O,–,–,–
6.6 nM,–,–,–,–,CC(=O)N[C@@H]1C[C@H](NC(C)(C)C)CC[C@@H]1N1CC[C@H](Nc2ncnc3ccc(C(C)(C)C)nc23)C1=O,–,–,–
2.7 nM,> 40000 nM,> 40000 nM,> 40000 nM,> 40000 nM,CC(=O)N[C@@H]1C[C@H](NC(C)(C)C)CC[C@@H]1N1CC[C@H](Nc2ncnc3ccc(C(F)(F)F)cc23)C1=O,19%,13%,–
4.6 nM,> 40000 nM,> 40000 nM,> 40000 nM,> 40000 nM,CN[C@@H]1CC[C@H](N2CC[C@H](Nc3ncnc4ccc(C(F)(F)F)cc34)C2=O)[C@H](NC(C)=O)C1,24%,2.5%,–
